Columns and labels:
Format in all cases: in vivo
Diabrotica balteata = Diabrotica balteata (corn root worm), sprayed maize sprouts; conditions: 96 h, application rate 200 ppm, L2 larvae, 4 days after infestation, read-out: effect in at least one of the two categories (mortality or growth inhibition)
In short: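 Read-out at 4 days post-infestation: mortality and growth inhibition relative to untreated samples. Test solutions (200 ppm, from DMSO stocks) were sprayed onto agar-held maize sprouts, which after drying received 6–10 L2 larvae per well.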

Myzus persicae = Myzus persicae (green peach aphid): feeding/contact activity; conditions: 144 h, application rate 200 ppm, aphid population of mixed ages, 6 days after infestation, read-out: mortality
Experimental: (§1) Sunflower leaf discs were placed onto agar in a 24-well microtiter plate and sprayed with aqueous test solutions prepared from 10'000 ppm DMSO stock solutions. After drying, the leaf discs were infested with an aphid population of mixed ages. The samples were assessed for mortality 6 days after infestation.

Plutella xylostella = Plutella xylostella (diamond back moth), artificial diet; conditions: 120 h, application rate 200 ppm, L2 larvae, 5 days after infestation, read-out: effect in at least one of the two categories (mortality or growth inhibition)
In short: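 L2 larvae (10-15 per well) fed on compound-treated, dried artificial diet; test solutions diluted in water from 10'000 ppm DMSO stocks. Readout 5 days post-infestation as mortality or growth inhibition versus untreated diet, with at least 80% effect at 200 ppm as threshold.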

Spodoptera littoralis [1] = experiment: Spodoptera littoralis (Egyptian cotton leaf worm), sprayed cotton leaf discs; conditions: foliar, 72 h, application rate 200 ppm, L1 larvae, 3 days after infestation, read-out: control (mortality, anti-feeding effect, growth inhibition)
In short: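 Five first-instar larvae placed on dried cotton leaf discs (on agar) previously sprayed with aqueous dilutions of 10'000 ppm DMSO stocks. Scored at 3 days against untreated discs for mortality, feeding inhibition and growth inhibition; any category above untreated counts as control.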

Spodoptera littoralis [2] = experiment: Spodoptera littoralis (Egyptian cotton leaf worm), uptake by lettuce roots from agar; conditions: 144 h, read-out: effect in at least one of the three categories (mortality, anti-feeding, or growth inhibition); for percent effect (mortality, anti-feeding or growth inhibition) at 12.5 ppm: test rate 12.5 ppm, eggs, 6 days after infestation
From the text: Test compounds were applied by pipette from 10'000 ppm DMSO stock solutions into 24-well plates and mixed with agar. Lettuce seeds were placed onto the agar and the multi well plate was closed by another plate which contained also agar. After 7 days the compound was absorbed by the roots and the lettuce grew into the lid plate. The lettuce leaves were then cut off into the lid plate. Spodoptera eggs were pipetted through a plastic stencil onto a humid gel blotting paper and the lid plate was closed with it. The samples were assessed for mortality, anti-feedant effect and growth inhibition in comparison to untreated samples 6 days after infestation.
The following compounds gave an effect of at least 80% in at least one of the three categories (mortality, anti-feeding, or growth inhibition) at a test rate of 12.5 ppm: […]

Tetranychus urticae = Tetranychus urticae (two-spotted spider mite): feeding/contact activity; conditions: 192 h, application rate 200 ppm, mixed population (mobile stages), 8 days after infestation, read-out: mortality
Experimental: Bean leaf discs on agar in 24-well microtiter plates were sprayed with aqueous test solutions prepared from 10'000 ppm DMSO stock solutions. After drying the leaf discs were infested with a mite population of mixed ages. The samples were assessed for mortality on mixed population (mobile stages) 8 days after infestation.

Thrips tabaci = Thrips tabaci (onion thrips): feeding/contact activity; conditions: 144 h, application rate 200 ppm, Thrips population of mixed ages, 6 days after infestation, read-out: mortality
Experimental: as §1, with “on” for “onto”, “in” for “in a”, “plates” for “plate”, “drying” for “drying,”, “a Thrips” for “an aphid”

Euschistus heros = Euschistus heros (neotropical brown stink bug), sprayed soybean leaves; conditions: 120 h, application rate 200 ppm, N2 nymphs, 5 days after infestation, read-out: effect in at least one of the two categories (mortality or growth inhibition)
In short: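 Scored 5 days post-infestation versus untreated controls, for both mortality and growth inhibition: N2 nymphs placed on agar-mounted soybean leaves previously sprayed at 200 ppm with aqueous test solutions from DMSO stocks and left to dry.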

Cc1cc(C2=NO[C@@](c3cc(Br)cc(C(F)(F)F)c3)(C(F)(F)F)C2)ccc1C(=O)NC1CON(S(=O)(=O)N(C)C)C1 (stereo partly shown) [Compound A23]
≥ 80%: percent effect (mortality or growth inhibition) at 200 ppm (Diabrotica balteata) | mortality at 200 ppm (Myzus persicae) | percent effect (mortality or growth inhibition) at 200 ppm (Plutella xylostella) | mortality at 200 ppm (Spodoptera littoralis [1]) | percent effect (mortality, anti-feeding or growth inhibition) at 12.5 ppm (Spodoptera littoralis [2]) | mortality at 200 ppm (Tetranychus urticae) | mortality at 200 ppm (Thrips tabaci)

Cc1cc(C2=NO[C@@](c3cc(Br)cc(C(F)(F)F)c3)(C(F)(F)F)C2)ccc1C(=O)NC1CON(S(C)(=O)=O)C1 (stereo partly shown) [Compound A16]
≥ 80%: percent effect (mortality or growth inhibition) at 200 ppm (Diabrotica balteata) | mortality at 200 ppm (Myzus persicae) | percent effect (mortality or growth inhibition) at 200 ppm (Plutella xylostella) | mortality at 200 ppm (Spodoptera littoralis [1]) | percent effect (mortality, anti-feeding or growth inhibition) at 12.5 ppm (Spodoptera littoralis [2]) | mortality at 200 ppm (Tetranychus urticae) | mortality at 200 ppm (Thrips tabaci)

CN(C)S(=O)(=O)N1CC(NC(=O)c2ccc(C3=NO[C@@](c4cc(Cl)c(Cl)c(Cl)c4)(C(F)(F)F)C3)cc2Cl)CO1 (stereo partly drawn) [Compound A32, 2-chloro-N-[2-(dimethylsulfamoyl)isoxazolidin-4-yl]-4-[(5S)-5-(3,4,5-trichlorophenyl)-5-(trifluoromethyl)-4H-isoxazol-3-yl]benzamide]
≥ 80%: percent effect (mortality or growth inhibition) at 200 ppm (Diabrotica balteata) | mortality at 200 ppm (Myzus persicae) | percent effect (mortality or growth inhibition) at 200 ppm (Plutella xylostella) | mortality at 200 ppm (Spodoptera littoralis [1]) | percent control (mortality, anti-feedant effect or growth inhibition) at 12.5 ppm (Spodoptera littoralis [2]) | mortality at 200 ppm (Tetranychus urticae) | mortality at 200 ppm (Thrips tabaci)

CCS(=O)(=O)N1CC(NC(=O)c2ccc(C3=NO[C@@](c4cc(Cl)c(F)c(Cl)c4)(C(F)(F)F)C3)cc2Cl)CO1 (stereo partly drawn) [Compound A25, 2-chloro-4-[(5S)-5-(3,5-dichloro-4-fluoro-phenyl)-5-(trifluoromethyl)-4H-isoxazol-3-yl]-N-(2-ethylsulfonylisoxazolidin-4-yl)benzamide]
≥ 80%: percent effect (mortality or growth inhibition) at 200 ppm (Diabrotica balteata) | mortality at 200 ppm (Myzus persicae) | percent effect (mortality or growth inhibition) at 200 ppm (Plutella xylostella) | mortality at 200 ppm (Spodoptera littoralis [1]) | percent control (mortality, anti-feedant effect or growth inhibition) at 12.5 ppm (Spodoptera littoralis [2]) | mortality at 200 ppm (Tetranychus urticae) | mortality at 200 ppm (Thrips tabaci)

CCS(=O)(=O)N1C[C@@H](NC(=O)c2ccc(C3=NO[C@@](c4cccc(C(F)(F)F)c4)(C(F)(F)F)C3)cc2C)CO1 [Compound A160]
≥ 80%: percent effect (mortality or growth inhibition) at 200 ppm (Diabrotica balteata) | percent effect (mortality or growth inhibition) at 200 ppm (Euschistus heros) | percent effect (mortality or growth inhibition) at 200 ppm (Plutella xylostella) | mortality at 200 ppm (Spodoptera littoralis [1]) | percent effect (mortality, anti-feeding or growth inhibition) at 12.5 ppm (Spodoptera littoralis [2]) | mortality at 200 ppm (Tetranychus urticae) | mortality at 200 ppm (Thrips tabaci)

CCS(=O)(=O)N1CC(NC(=O)c2ccc(C3=NO[C@@](c4cc(Cl)c(Cl)c(Cl)c4)(C(F)(F)F)C3)cc2Cl)CO1 (stereo partly drawn) [Compound A28, 2-chloro-N-(2-ethylsulfonylisoxazolidin-4-yl)-4-[(5S)-5-(3,4,5-trichlorophenyl)-5-(trifluoromethyl)-4H-isoxazol-3-yl]benzamide]
≥ 80%: percent effect (mortality or growth inhibition) at 200 ppm (Diabrotica balteata) | mortality at 200 ppm (Myzus persicae) | percent effect (mortality or growth inhibition) at 200 ppm (Plutella xylostella) | mortality at 200 ppm (Spodoptera littoralis [1]) | percent control (mortality, anti-feedant effect or growth inhibition) at 12.5 ppm (Spodoptera littoralis [2]) | mortality at 200 ppm (Tetranychus urticae) | mortality at 200 ppm (Thrips tabaci)

O=C(NC1CON(S(=O)(=O)C2CC2)C1)c1ccc(C2=NO[C@@](c3cc(Cl)c(F)c(Cl)c3)(C(F)(F)F)C2)cc1Cl (stereo partly drawn) [Compound A24, 2-chloro-N-(2-cyclopropylsulfonylisoxazolidin-4-yl)-4-[(5S)-5-(3,5-dichloro-4-fluoro-phenyl)-5-(trifluoromethyl)-4H-isoxazol-3-yl]benzamide]
≥ 80%: percent effect (mortality or growth inhibition) at 200 ppm (Diabrotica balteata) | mortality at 200 ppm (Myzus persicae) | percent effect (mortality or growth inhibition) at 200 ppm (Plutella xylostella) | mortality at 200 ppm (Spodoptera littoralis [1]) | percent control (mortality, anti-feedant effect or growth inhibition) at 12.5 ppm (Spodoptera littoralis [2]) | mortality at 200 ppm (Tetranychus urticae) | mortality at 200 ppm (Thrips tabaci)

Cc1cc(C2=NO[C@@](c3cc(Cl)cc(C(F)(F)F)c3)(C(F)(F)F)C2)ccc1C(=O)NC1CON(S(=O)(=O)N(C)C)C1 (stereo partly shown) [Compound A22]
≥ 80%: percent effect (mortality or growth inhibition) at 200 ppm (Diabrotica balteata) | mortality at 200 ppm (Myzus persicae) | percent effect (mortality or growth inhibition) at 200 ppm (Plutella xylostella) | mortality at 200 ppm (Spodoptera littoralis [1]) | percent control (mortality, anti-feedant effect or growth inhibition) at 12.5 ppm (Spodoptera littoralis [2]) | mortality at 200 ppm (Tetranychus urticae) | mortality at 200 ppm (Thrips tabaci)

Cc1cc(C2=NO[C@@](c3cc(Cl)c(Cl)c(Cl)c3)(C(F)(F)F)C2)ccc1C(=O)NC1CON(S(=O)(=O)N(C)C)C1 (stereo partly drawn) [Compound A31, N-[2-(dimethylsulfamoyl)isoxazolidin-4-yl]-2-methyl-4-[(5S)-5-(3,4,5-trichlorophenyl)-5-(trifluoromethyl)-4H-isoxazol-3-yl]benzamide]
≥ 80%: percent effect (mortality or growth inhibition) at 200 ppm (Diabrotica balteata) | mortality at 200 ppm (Myzus persicae) | percent effect (mortality or growth inhibition) at 200 ppm (Plutella xylostella) | mortality at 200 ppm (Spodoptera littoralis [1]) | percent control (mortality, anti-feedant effect or growth inhibition) at 12.5 ppm (Spodoptera littoralis [2]) | mortality at 200 ppm (Tetranychus urticae) | mortality at 200 ppm (Thrips tabaci)

Cc1cc(C2=NO[C@@](c3cc(Cl)c(F)c(Cl)c3)(C(F)(F)F)C2)ccc1C(=O)NC1CON(S(C)(=O)=O)C1 (stereo partly drawn) [Compound A1, 4-[(5S)-5-(3,5-dichloro-4-fluoro-phenyl)-5-(trifluoromethyl)-4H-isoxazol-3-yl]-2-methyl-N-(2-methylsulfonylisoxazolidin-4-yl)benzamide]
≥ 80%: percent effect (mortality or growth inhibition) at 200 ppm (Diabrotica balteata) | mortality at 200 ppm (Myzus persicae) | percent effect (mortality or growth inhibition) at 200 ppm (Plutella xylostella) | mortality at 200 ppm (Spodoptera littoralis [1]) | percent control (mortality, anti-feedant effect or growth inhibition) at 12.5 ppm (Spodoptera littoralis [2]) | mortality at 200 ppm (Tetranychus urticae) | mortality at 200 ppm (Thrips tabaci)

O=C(NC1CON(S(=O)(=O)C2CC2)C1)c1ccc(C2=NO[C@@](c3cc(Cl)c(Cl)c(Cl)c3)(C(F)(F)F)C2)cc1Cl (stereo partly drawn) [Compound A30, 2-chloro-N-(2-cyclopropylsulfonylisoxazolidin-4-yl)-4-[(5S)-5-(3,4,5-trichlorophenyl)-5-(trifluoromethyl)-4H-isoxazol-3-yl]benzamide]
≥ 80%: percent effect (mortality or growth inhibition) at 200 ppm (Diabrotica balteata) | mortality at 200 ppm (Myzus persicae) | percent effect (mortality or growth inhibition) at 200 ppm (Plutella xylostella) | mortality at 200 ppm (Spodoptera littoralis [1]) | percent control (mortality, anti-feedant effect or growth inhibition) at 12.5 ppm (Spodoptera littoralis [2]) | mortality at 200 ppm (Tetranychus urticae) | mortality at 200 ppm (Thrips tabaci)

CN(C)S(=O)(=O)N1CC(NC(=O)c2ccc(C3=NO[C@@](c4cc(Cl)c(F)c(Cl)c4)(C(F)(F)F)C3)cc2Cl)CO1 (stereo partly shown) [Compound A21]
≥ 80%: percent effect (mortality or growth inhibition) at 200 ppm (Diabrotica balteata) | mortality at 200 ppm (Myzus persicae) | percent effect (mortality or growth inhibition) at 200 ppm (Plutella xylostella) | mortality at 200 ppm (Spodoptera littoralis [1]) | percent control (mortality, anti-feedant effect or growth inhibition) at 12.5 ppm (Spodoptera littoralis [2]) | mortality at 200 ppm (Tetranychus urticae) | mortality at 200 ppm (Thrips tabaci)

Cc1cc(C2=NOC(c3cc(C(F)(F)F)c(Cl)c(C(F)(F)F)c3)(C(F)(F)F)C2)ccc1C(=O)NC1CON(S(C)(=O)=O)C1 (stereo not shown) [Compound A57]
≥ 80%: percent effect (mortality or growth inhibition) at 200 ppm (Diabrotica balteata) | percent effect (mortality or growth inhibition) at 200 ppm (Euschistus heros) | percent effect (mortality or growth inhibition) at 200 ppm (Plutella xylostella) | mortality at 200 ppm (Spodoptera littoralis [1]) | percent control (mortality, anti-feedant effect or growth inhibition) at 12.5 ppm (Spodoptera littoralis [2]) | mortality at 200 ppm (Tetranychus urticae) | mortality at 200 ppm (Thrips tabaci)

From patent US10588317B2, “Isoxazoline-substituted benzamides and analogues as insecticides” (priority 2015, dated 2020)
